From patent US7101872B2, “Farnesyl dibenzodiazepinone, and processes for its production” (Ecopia BioSciences, Inc., priority 2003, dated 2006) come the findings set out here.

For orientation: IC50 means the point on the concentration scale where inhibition reaches its midpoint. As a reminder, the EC50 is the concentration at which the effect is half-maximal.

In assay [1] the test system is 9L. Kind of assay: Antiproliferative study, glioma cell lines (MTT). In kind it is cell-based. Conditions: Rattus norvegicus, Gliosarcoma, 96 hrs. As to the method: (§1) Cells were passaged once a week. Prior to use the cells were detached from the culture flask by treating with trypsin for five to ten minutes. The cells were counted with a Neubauer glass slide and viability assessed by 0.25% trypan blue exclusion. Only flasks with >95% cell viability, were used in the study. Cell lines amplification and plating: Cells, 5×10^3 cells per well in 100 μL drug-free medium supplemented with 10% serum, were plated in 96-well flat bottom microtiter plates and incubated at 37° C. for 48 hrs before treatment. Evaluation of inhibitory activity on cell proliferation: Cells (in triplicate wells) were incubated 96 hrs with medium containing different concentrations of ECO-04601, starting at 5.0 μg/ml (10 μM). The compound was used in a solution of 1% DMSO in D-MEM or RPMI media (or other equivalent media). The concentrations of ECO-04601 were as follows: 10 μM (5.0 μg/ml), 1 μM (0.50 μg/ml), 0.5 μM (0.25 μg/ml), 0.1 μM (0.050 μg/ml), […] (0.025 μg/ml), 0.01 μM (0.0050 μg/ml), 0.001 μM (0.00050 μg/ml). Negative controls were cells treated with vehicle alone (1% DMSO in culture medium). Positive controls were cells treated with 4 to 6 increasing concentrations of cisplatin (CDDP) (data not shown). The optical density was measured before incubation (time 0) and following 96 hrs of incubation with test compound in order to measure the growth rate of each cell line.
(§2) At the end of the cell treatment, cell culture media was replaced with 150 μl of fresh medium containing 10 mM of 4-(2-hydroxyethyl)-1-piperazineethanesulfonic acid buffer, pH 7.4. Then 50 μl of 2.5 mg/ml of 3-(4,5-dimethylthiazo-2-yl)-2,5-diphenyltetrazolium bromide in PBS pH 7.4, were added to each well and the culture plates incubated for 4 hrs at 37° C. The resulting supernatant was removed and formazan crystals were dissolved with 200 μl of DMSO followed by 25 μl of glycine buffer (0.1 M glycine plus 0.1 M NaCl, pH 10.5). The optical density was read in each well using a single wavelength spectrophotometer plate reader at 570 nm. […] Each of the cell lines was tested in at least 3 independent experiments.

Assay [2] deals with C6. Kind of assay: Antiproliferative study, glioma cell lines (MTT). In kind it is cell-based. The settings on record: Rattus norvegicus, C6, Glioblastoma, 96 hrs. As for the experimental part: as §1, §2
The test system of assay [3] is DN. The assay is described as follows: Antiproliferative study, glioma cell lines (MTT). Conditions: Homo sapiens, Oligodendroglioma, 96 hrs. In kind it is cell-based. As for the experimental part:
as §1, §2

The test system of assay [4] is GHA. Kind of assay: Antiproliferative study, glioma cell lines (MTT). The class given is cell-based. Conditions: Homo sapiens, Oligodendroglioma, 96 hrs. As to the method:
as §1, §2

The subject of assay [5] is U 373. The assay is described as follows: Antiproliferative study, glioma cell lines (MTT). In kind it is cell-based. Conditions: Homo sapiens, U373 MG, U 373, Astrocytoma, 96 hrs. As for the experimental part: as §1, §2
In assay [6] the target is T1, human 5-LO (Homo sapiens, UniProt P09917).
T1 construct: Human peripheral blood mononuclear cells (PMNs) were isolated through a Ficoll-Paque density gradient; endogenous in cells; host or cells: human peripheral blood cells (PMNs) isolated by Ficoll-Paque, stimulated with A23187
Kind of assay: Human 5-lipoxygenase activity in stimulated PMNs (Leukotriene B4 EIA). The class given is cell-based.
Experimental: Experimental Design: Human peripheral blood mononuclear cells (PMNs) were isolated through a Ficoll-Paque density gradient. PMNs were stimulated by addition A23187 (30 μM final concentration). […] Following incubation, samples were neutralized with NaOH and centrifuged. Leukotriene B4 content was measured in the supernatant using an Enzyme Immunosorbant Assay (EIA) assay.

For assay [7], the system named is C6 glioblastoma cell-bearing mice. The assay is described as follows: In vivo glioma model, treatment from day 10 after inoculation. Also noted: species or system Mus musculus nude mice. Conditions: 20–30 mg/kg; versus vehicle-treated mice (FIG. 11). As for the experimental part:
The aim of this study was to test whether ECO-04601 administered by i.p. route prevents or delays tumor growth in C6 glioblastoma cell-bearing mice, and to determine an effective dosage regimen.
Animal experiments were performed according to ethical guidelines of animal experimentation (Charte du comité d'éthique du CNRS, juillet 2003) and the English guidelines for the welfare of animals in experimental neoplasia (WORKMAN, P., […], P., BALKWILL, F., et al. (1998). United Kingdom Coordinating Committee on Cancer Research (UKCCCR) Guidelines for the welfare of animals in experimental neoplasia (Second Edition, July 1997; British Journal of Cancer 77:1–10). Any dead or apparently sick mice were promptly removed and replaced with healthy mice. Sick mice were euthanized upon removal from the cage. Animals were maintained in rooms under controlled conditions of temperature (23±2° C.), humidity (45±5%), photoperiodicity (12 hrs light/12 hrs dark) and air exchange. […] The cells were counted in a hemocytometer and their viability assessed by 0.25% trypan blue exclusion. […]
In a second series of experiments, treatment started at day 10 following inoculation of C6 cells when tumors became palpable (around 100 to 200 mm^3). […] Tumor volume was measured every second day until the end of the treatment using callipers. […]

T1 sequence (P09917 whole entry): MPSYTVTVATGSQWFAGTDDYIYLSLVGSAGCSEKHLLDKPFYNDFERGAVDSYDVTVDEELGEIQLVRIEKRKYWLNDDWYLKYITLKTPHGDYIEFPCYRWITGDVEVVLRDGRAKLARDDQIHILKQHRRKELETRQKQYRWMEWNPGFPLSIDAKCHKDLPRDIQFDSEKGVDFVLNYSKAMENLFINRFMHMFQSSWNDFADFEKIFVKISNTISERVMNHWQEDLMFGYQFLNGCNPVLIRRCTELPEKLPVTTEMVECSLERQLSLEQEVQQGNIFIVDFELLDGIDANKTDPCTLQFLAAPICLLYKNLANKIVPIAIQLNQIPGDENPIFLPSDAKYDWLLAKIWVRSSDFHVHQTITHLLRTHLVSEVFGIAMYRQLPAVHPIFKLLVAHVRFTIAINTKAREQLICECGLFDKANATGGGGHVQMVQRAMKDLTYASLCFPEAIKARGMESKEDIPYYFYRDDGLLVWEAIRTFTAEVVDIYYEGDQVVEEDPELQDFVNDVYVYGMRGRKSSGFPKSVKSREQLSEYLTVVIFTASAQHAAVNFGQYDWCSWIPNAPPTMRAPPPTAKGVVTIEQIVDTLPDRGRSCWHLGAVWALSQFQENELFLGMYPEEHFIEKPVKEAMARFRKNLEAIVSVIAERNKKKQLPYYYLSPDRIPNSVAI

Regarding `CC(C)=CCC/C(C)=C/CC/C(C)=C/CN1C(=O)c2cccc(O)c2Nc2c(O)cc(O)cc21` [ECO-04601, 10-farnesyl-4,6,8-trihydroxy-dibenzodiazepin-11-one], the IC50 came out at 6.82 ± 2.9 µM in assay [1]; 4.28 ± 2.82 µM in assay [2]; 3.26 ± 0.93 µM in assay [3]; 1.78 ± 0.84 µM in assay [4]; 3.83 ± 1.37 µM in assay [5]; 0.93 µM in assay [6] (A23187-stimulated human PMNs, 15 minutes at 37° C., Leukotriene B4 EIA, read-out: apparent IC50, activity of human 5-LO). In assay [6] (FIG. 8 legend), this compound came in with an EC50 of 0.93 µM. For the same compound, the “Histological analysis of tumor sections” value in assay [7] is “cell density was decreased and the nuclei of remaining tumor cells appeared larger and pycnotic”.
